Test results taken from the NIST ThermoML archive (doi:10.1016/j.jct.2005.03.012).

Test: excess molar enthalpy (molar enthalpy of mixing); xn = mol fraction of the nth substance listed
Conditions: Liquid

CO [methanol] + O
excess molar enthalpy [kcal/mol]
Conditions | 8500 kPa | 10000 kPa
505.01 K, x1 = 0.2 | – | 0.0844
505.63 K, x1 = 0.6 | – | 0.0984
505.93 K, x1 = 0.3 | 0.0752 | –
506.02 K, x1 = 0.2 | 0.0617 | –
506.29 K, x1 = 0.4 | 0.0736 | –
506.52 K, x1 = 0.2 | – | 0.0828
506.53 K, x1 = 0.4 | – | 0.108
506.59 K, x1 = 0.1 | 0.0371 | –
506.7 K, x1 = 0.5 | 0.0603 | –
507.3 K, x1 = 0.6 | 0.0391 | –
507.4 K, x1 = 0.8 | – | 0.0512
507.5 K, x1 = 0.6 | – | 0.093
507.82 K, x1 = 0.7 | 0.0164 | –
507.86 K, x1 = 0.1 | 0.0344 | –
508.01 K, x1 = 0.2 | 0.0531 | –
508.15 K, x1 = 0.1 | 0.0342 | –
508.15 K, x1 = 0.2 | 0.0525 | 0.0818
508.15 K, x1 = 0.3 | 0.0606 | –
508.15 K, x1 = 0.4 | 0.0578 | 0.103
508.15 K, x1 = 0.5 | 0.0455 | –
508.15 K, x1 = 0.6 | 0.0288 | 0.0886
508.15 K, x1 = 0.7 | 0.012 | –
508.15 K, x1 = 0.8 | -0.00588 | 0.0489
508.15 K, x1 = 0.9 | -0.0143 | –
508.29 K, x1 = 0.8 | -0.00834 | –
508.45 K, x1 = 0.9 | -0.0172 | –
508.63 K, x1 = 0.8 | – | 0.0472
508.68 K, x1 = 0.4 | 0.0514 | –
509.15 K, x1 = 0.3 | 0.0516 | –
509.29 K, x1 = 0.5 | 0.03 | –
509.71 K, x1 = 0.2 | – | 0.0786
509.71 K, x1 = 0.6 | – | 0.0815
509.71 K, x1 = 0.8 | – | 0.0423
509.91 K, x1 = 0.1 | 0.0298 | –
509.91 K, x1 = 0.2 | 0.0434 | –
509.91 K, x1 = 0.3 | 0.0466 | –
509.91 K, x1 = 0.4 | 0.0384 | –
509.91 K, x1 = 0.5 | 0.0221 | –
509.91 K, x1 = 0.6 | 0.00275 | –
509.91 K, x1 = 0.7 | -0.0163 | –
509.91 K, x1 = 0.8 | -0.0325 | –
509.91 K, x1 = 0.9 | -0.037 | –
510.17 K, x1 = 0.7 | -0.0212 | –
510.19 K, x1 = 0.3 | – | 0.0908
510.22 K, x1 = 0.6 | 0.00151 | –
510.22 K, x1 = 0.8 | -0.0352 | –
510.43 K, x1 = 0.4 | – | 0.0943
510.63 K, x1 = 0.2 | – | 0.0733
510.71 K, x1 = 0.9 | -0.0418 | –
510.88 K, x1 = 0.5 | – | 0.0876
511.51 K, x1 = 0.1 | – | 0.0425
511.67 K, x1 = 0.6 | – | 0.0678
512.18 K, x1 = 0.7 | – | 0.0484
512.47 K, x1 = 0.5 | – | 0.0767
512.6 K, x1 = 0.4 | – | 0.0828
512.67 K, x1 = 0.8 | – | 0.0257
512.9 K, x1 = 0.3 | – | 0.0793
512.9 K, x1 = 0.9 | – | 0.00574
513.15 K, x1 = 0.1 | 0.011 | 0.0396
513.15 K, x1 = 0.2 | 0.00782 | 0.0663
513.15 K, x1 = 0.3 | -0.012 | 0.0779
513.15 K, x1 = 0.4 | -0.0294 | 0.0799
513.15 K, x1 = 0.5 | -0.0556 | 0.0728
513.15 K, x1 = 0.6 | -0.0928 | 0.0598
513.15 K, x1 = 0.7 | -0.14 | 0.0408
513.15 K, x1 = 0.8 | -0.164 | 0.0228
513.15 K, x1 = 0.9 | -0.155 | 0.00569
513.61 K, x1 = 0.2 | – | 0.0641
513.87 K, x1 = 0.1 | – | 0.0385
513.88 K, x1 = 0.6 | – | 0.0498
514.32 K, x1 = 0.1 | -0.00899 | –
514.32 K, x1 = 0.2 | -0.0402 | –
514.32 K, x1 = 0.3 | -0.0669 | –
514.32 K, x1 = 0.4 | -0.118 | –
514.32 K, x1 = 0.5 | -0.16 | –
514.32 K, x1 = 0.6 | -0.183 | –
514.32 K, x1 = 0.7 | -0.214 | –
514.32 K, x1 = 0.8 | -0.247 | –
514.32 K, x1 = 0.9 | -0.28 | –
514.44 K, x1 = 0.9 | – | -0.00217
514.48 K, x1 = 0.7 | – | 0.0282
514.52 K, x1 = 0.8 | – | 0.0107
514.98 K, x1 = 0.1 | – | 0.0354
514.98 K, x1 = 0.2 | – | 0.0587
514.98 K, x1 = 0.3 | – | 0.0676
514.98 K, x1 = 0.4 | – | 0.0676
514.98 K, x1 = 0.5 | – | 0.0582
514.98 K, x1 = 0.6 | – | 0.0411
514.98 K, x1 = 0.7 | – | 0.0222
514.98 K, x1 = 0.8 | – | 0.00755
514.98 K, x1 = 0.9 | – | -0.00311
